Measured values: PubChem BioAssay AID2060502 (Molecular Pharmacology Branch, DTP, NCI, 2025)
“And” between values parts separate entries of the source, which are not always exact repeats. Equal entries are not always repeated. One block for each molecule: values may come before it.

Test system: 885724-159-R-J1-PDC complex spheroid viability
Assay: Anticancer human tumor 885724-159-R-J1-PDC patient-derived pancreatic adenocarcinoma cell line growth inhibition [GQUAD]
Settings: for viability, T/C: stronger effect = lower value; for IC50: curve of compound
Excerpt: DNA G-quadruplex Stabilizer Agents in Combinations in Complex Spheroids
A high-throughput screen of multi-cell type tumor spheroids was designed to identify active combinations of DNA G-quadruplex stabilizer agents and targeted small molecules. Complex spheroids include a stromal component modeled by human endothelial cells (HUVEC) and fibroblasts modeled by human mesenchymal stem cells (MSCs). The concentration ranges selected for each drug and investigational agent were based upon clinically achievable concentrations if the clinical Cmax of the agent was known.
Compounds. The drugs and investigational agents: pidnarulex (CX-5461; NSC782164), APTO-253 (NSC789042), BRACO-19 (NSC847499), peposertib (NSC802822), ceralasertib (NSC780249), elimusertib (NSC800525), camonsertib (NSC841442), AZD-1390 (NSC803789), olaparib (NSC753686), talazoparib (NSC767125), ART-558 (NSC835418), sotorasib (NSC818433), MRTX-1133 (NSC836407), SN-38 (NSC673596), topotecan (NSC609699), etoposide (NSC141540), doxorubicin (NSC123127), gemcitabine (NSC613327), 5-fluorouracil (NSC19893), paclitaxel (NSC125973), vemurafenib (NSC761431), panobinostat (NSC761190), R-306465 (JNJ-16241199; NSC773264), adavosertib (NSC754352), TP-3654 (NSC805149), carboplatin (NSC241240), KSQ-4279 (NSC840948), and staurosporine (NSC755774) were obtained from the National Cancer Institute (NCI) Developmental Therapeutics Program Chemical Repository (34). The FDA-approved anticancer drug set is available from the NCI Developmental Therapeutics Program. […] The stock solutions were prepared in dimethyl sulfoxide (DMSO, Sigma-Aldrich, St. Louis, MO, cat. D2650) at 800-fold the tested concentration and stored at -70 degrees C prior to their use. All drugs and investigational agents were tested over a range starting from a high concentration at or near the clinical Cmax and decreasing in half-log increments. If the clinical Cmax for an agent had not been determined, the highest concentration tested was 10 microM.
2.3 Cell Culture. All cells were maintained in an incubator at 37 degrees C and 5% CO2 with 95% humidity. The PDC lines were cultured according to standard operating procedures established by the NCI PDMR. All PDCs were thawed and cultured in Matrigel-coated flasks prepared with a working solution of 1X Ham's F-12 nutrient mix, without supplementation (Invitrogen, cat. 11765054), 100 U/mL penicillin-streptomycin (Invitrogen, cat. 15140122), and 2.5% Matrigel (Corning Inc., cat. 354248) for the first three passages. The 857933-349-R-J2-PDC line was cultured in 6C/Colon 1B media, which includes advanced DMEM/F-12 (Thermo Fisher Scientific, cat. 12634028), 10 mM HEPES (Thermo Fisher Scientific, cat. 15630080), 1X GlutaMAX supplement (Thermo Fisher Scientific, cat. 35050061), 0.1 mg/mL primocin (InvivoGen, cat. ant-pm-2), 10% defined fetal bovine serum, heat inactivated (HyClone Laboratories Inc., cat. SH30070.03HI), 50% L-WRN conditioned media (ATCC, cat. CRL-3276), 1.25 mM N-Acetyl-L-cysteine (Sigma-Aldrich, cat. A9165), 10 mM nicotinamide (Sigma-Aldrich, cat. N0636), 1X B-27 supplement (Thermo Fisher Scientific, cat. 17504044), 1X N-2 supplement (Thermo Fisher Scientific, cat. 17502048), 10 microM Y-27632 dihydrochloride (Tocris Bioscience, cat. 1254), and 50 ng/mL human EGF recombinant protein (Thermo Fisher Scientific, cat. PHG0311). The 485176-168-R4-J1-PDC line was cultured in Panc media, which includes all 6C/Colon 1B media components plus 100 ng/mL human FGF-10 (Thermo Fisher Scientific, cat. 100-26), 500 nM SB-431542 (Selleckchem, cat. S1067), and gastrin (Tocris, cat. 3006).
[…]
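Also: spheroids exposed to agents for seven days before readout.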
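For viability, T/C in this document: percent of vehicle control viability where 100% = DMSO wells.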

IC50: > 10 µM
SMILES: C=CCn1c(=O)c2cnc(Nc3ccc(N4CCN(C)CC4)cc3)nc2n1-c1cccc(C(C)(C)O)n1
viability, T/C (compound 0.0316 µM): 90.4% and 95.2% and 93.1%
viability, T/C (compound 0.1 µM): 81.6% and 90.3% and 88.1%
viability, T/C (compound 0.316 µM): 68.6% and 78.2% and 86%
viability, T/C (compound 1 µM): 75.6% and 70.3% and 89.2%
viability, T/C (compound 3.16 µM): 65.7% and 58% and 84%
viability, T/C (compound 10 µM): 74.5% and 66.7% and 91.9%

IC50: > 10 µM
SMILES: COc1ncnc(C2CC2)c1-c1ncc2cnn(Cc3ccc(-c4nc(C(F)(F)F)cn4C(C)C)cc3)c2n1
viability, T/C (compound 0.0316 µM): 86.6% and 90.5% and 93%
viability, T/C (compound 0.1 µM): 95.1% and 90.7% and 98.2%
viability, T/C (compound 0.316 µM): 99% and 97.4% and 93.2%
viability, T/C (compound 1 µM): 99.8% and 90.6% and 97.7%
viability, T/C (compound 3.16 µM): 90.2% and 96% and 92.5%
viability, T/C (compound 10 µM): 115% and 101% and 113%

IC50: > 0.316 µM
SMILES: CC[C@@]1(O)C(=O)OCc2c1cc1n(c2=O)Cc2cc3c(CN(C)C)c(O)ccc3nc2-1
viability, T/C (compound 0.000999 µM): 86.3% and 93.6% and 89.6%
viability, T/C (compound 0.00316 µM): 104% and 87.4% and 88.3%
viability, T/C (compound 0.00999 µM): 99.2% and 92.9% and 93%
viability, T/C (compound 0.0316 µM): 80.8% and 92.5% and 101%
viability, T/C (compound 0.0999 µM): 85.6% and 74.7% and 90.8%
viability, T/C (compound 0.316 µM): 74.5% and 64.7% and 71.3%
